Test results: patent publication US5567692A, “9-[(substituted glycyl) amido)]-6-demethyl-6-deoxytetracyclines” (priority 1995, dated 1996)
Where a name gives a salt, the structure may show the parent alone. Read-outs that look alike come from different tables or passages of the source.

Experiments:
E. coli #311 (MP) = test: MIC, agar dilution; format: cell-based; conditions: Escherichia coli, 18 h
[1] = tested on: S. aureus UBMS 88-7 Tet K; test: microbe, parasite or virus in culture; format: cell-based; conditions: Staphylococcus aureus, UBMS887TETK, 18 h
Enterococcus 12201 = test: MIC, agar dilution; format: cell-based; conditions: Enterococcus, 12201, 18 h
S. aureus NEMC 8769 = test: MIC, agar dilution; format: cell-based
E. coli J3272 Tet D = test: microbe, parasite or virus in culture; format: cell-based; conditions: Escherichia coli, J3272TETD, 18 h
E. faecalis ATCC 29212 = test: MIC, agar dilution; format: cell-based; conditions: Enterococcus faecalis, ATCC29212, 18 h
[2] = tested on: Ps. aeruginosa ATCC 27853; test: MIC, agar dilution; format: cell-based; conditions: Pseudomonas aeruginosa, ATCC27853, 18 h
S. aureus UBMS 88-4 = test: MIC, agar dilution; format: cell-based; conditions: Staphylococcus aureus, UBMS884, 18 h
[3] = tested on: E. coli MC 4100 TNIOC Tet B; test: microbe, parasite or virus in culture; format: cell-based; conditions: Escherichia coli, 18 h
E. coli ATCC 25922 = test: MIC, agar dilution; format: cell-based; conditions: Escherichia coli, ATCC25922, 18 h
[4] = tested on: S. aureus UBMS 90-1 Tet M; test: microbe, parasite or virus in culture; format: cell-based; conditions: Staphylococcus aureus, UBMS901TETM, 18 h
[5] = tested on: X. maltophilia NEMC 87210; test: MIC, agar dilution; format: cell-based; conditions: Stenotrophomonas maltophilia, NEMC87210, 18 h
[6] = tested on: S. aureus UBMS 88-5 Tet M; test: microbe, parasite or virus in culture; format: cell-based; conditions: Staphylococcus aureus, UBMS885TETM, 18 h
E. coli UBMS 89-1 Tet M = test: microbe, parasite or virus in culture; format: cell-based; conditions: Escherichia coli, UBMS891TETM, 18 h
E. coli UBMS 90-4 Tet M = test: microbe, parasite or virus in culture; format: cell-based; conditions: Escherichia coli, UBMS904TETM, 18 h
S. aureus ROSE (MP) = test: MIC, agar dilution; format: cell-based; conditions: Staphylococcus aureus, 18 h
E. coli J3272 Tet C = test: microbe, parasite or virus in culture; format: cell-based; conditions: Escherichia coli, J3272TETC, 18 h
[7] = tested on: S. aureus UBMS 90-2 Tet M; test: microbe, parasite or virus in culture; format: cell-based; conditions: Staphylococcus aureus, UBMS902TETM, 18 h
S. aureus UBMS 90-3 = test: MIC, agar dilution; format: cell-based; conditions: Staphylococcus aureus, UBMS903, 18 h
S. aureus SMITH (MP) = test: MIC, agar dilution; format: cell-based; conditions: Staphylococcus aureus, 18 h; S. aureus SMITH (MP); read-out: MIC
[8] = tested on: E. coli UBMS 89-2 Tet sens.; test: MIC, agar dilution; format: cell-based; conditions: Escherichia coli, 18 h
S. aureus IVES 1983 = test: MIC, agar dilution; format: cell-based; conditions: Staphylococcus aureus, IVES1983, 18 h
E. coli UBMS 90-5 = test: microbe, parasite or virus in culture; format: cell-based; conditions: Escherichia coli, UBMS905, 18 h, E. coli UBMS 90-5; read-out: MIC
E. coli UBMS 88-1 Tet B = test: microbe, parasite or virus in culture; format: cell-based; conditions: Escherichia coli, UBMS881TETB, 18 h
E. coli PRP1 Tet A = test: microbe, parasite or virus in culture; format: cell-based; conditions: Escherichia coli, PRP1TETA, 18 h
[9] = tested on: E. coli MC 4100 Tet sens.; test: MIC, agar dilution; format: cell-based; conditions: Escherichia coli, 18 h
[10] = tested on: S. hemolyticus AVHAH 88-3; test: MIC, agar dilution; format: cell-based; conditions: Streptococcus pyogenes, AVHAH883, 18 h
E. coli BAJ9003 IMP MUT = test: microbe, parasite or virus in culture; format: cell-based; conditions: Escherichia coli, BAJ9003IMPMUT, 18 h
S. aureus IVES 2943 = test: MIC, agar dilution; format: cell-based; conditions: Staphylococcus aureus, IVES2943, 18 h
S. marcescens FPOR 8733 = test: MIC, agar dilution; format: cell-based; conditions: Serratia marcescens, FPOR8733, 18 h
S. aureus ATCC 29213 = test: MIC, agar dilution; format: cell-based; conditions: Staphylococcus aureus, ATCC29213, 18 h, S. aureus ATCC 29213
E. coli J2175 = test: MIC, agar dilution; format: cell-based; conditions: Escherichia coli, 18 h, read-out: MIC
[11] = tested on: Staphylococcus aureus strain Smith (tetracycline sensitive); test: Acute lethal infection in mice, S. aureus Smith; format: in vivo; conditions: for ED50: Staphylococcus aureus, 168 h, mice, S. aureus Smith (Sens), 7 day survival, read-out: ED50
[12] = Enterococcus 12201, read-out: MIC
[13] = Ps. aeruginosa ATCC 27853, read-out: MIC
[14] = S. aureus IVES 2943, read-out: MIC
[15] = Staphylococcus aureus, NEMC8769, 18 h
[16] = E. faecalis ATCC 29212, read-out: MIC

Compound | MIC (E. coli #311 (MP)) [µg/mL] | MIC [1] [µg/mL] | MIC (Enterococcus 12201; [12]) [µg/mL] | MIC (E. coli J3272 Tet D) [µg/mL] | MIC [2, 13] [µg/mL] | MIC (S. aureus UBMS 88-4) [µg/mL] | MIC [3] [µg/mL] | MIC [4] [µg/mL] | MIC [6] [µg/mL] | MIC (E. coli UBMS 89-1 Tet M) [µg/mL] | MIC (E. coli UBMS 90-4 Tet M) [µg/mL] | MIC (E. coli J3272 Tet C) [µg/mL] | MIC [7] [µg/mL] | MIC (S. aureus SMITH (MP)) [µg/mL] | MIC [8] [µg/mL] | MIC (E. coli UBMS 90-5) [µg/mL] | MIC (E. coli UBMS 88-1 Tet B) [µg/mL] | MIC [9] [µg/mL] | MIC (E. coli BAJ9003 IMP MUT) [µg/mL] | MIC (E. coli J2175) [µg/mL] | further results
CC1CCN(CC(=O)Nc2ccc3c(c2O)C(=O)C2=C(O)[C@]4(O)C(=O)C(C(N)=O)=C(O)[C@@H](N(C)C)C4CC2C3)CC1 (stereo partly drawn) [A, [7S-(7alpha,10aalpha)]-N-(9-(Aminocarbonyl)-7-(dimethylamino)-5,5a,6,6a,7,10,10a,12-octahydro-1,8,10a,11-tetrahydroxy-10,12-dioxo-2-naphthacenyl]-4-methyl-1-piperidineacetamide dihydrochloride] | 0.25 | 1 | 0.5 | 0.25 | > 32 | 0.5 | 1 | 1 | 0.5 | 0.25 | 0.5 | 1 | 0.5 | 0.5 | 0.5 | 0.5 | 1 | 0.25 | 0.12 | 0.5 | MIC (S. aureus NEMC 8769): no growth; MIC (E. faecalis ATCC 29212): 0.25 µg/mL; MIC (E. coli ATCC 25922; read-out: MIC): 0.25 µg/mL; MIC ([5]; X. maltophilia NEMC 87210, read-out: MIC): 0.5 µg/mL; MIC (S. aureus ROSE (MP); read-out: MIC): 2 µg/mL; MIC (S. aureus UBMS 90-3): 0.5 µg/mL; MIC (S. aureus IVES 1983): 1 µg/mL; MIC (E. coli PRP1 Tet A): 1 µg/mL; MIC [10]: 2 µg/mL; MIC (S. aureus IVES 2943; [14]): 0.5 µg/mL; MIC (S. marcescens FPOR 8733): 8 µg/mL; MIC (S. aureus ATCC 29213; read-out: MIC): 0.5 µg/mL
CCCNCC(=O)Nc1ccc2c(c1O)C(=O)C1=C(O)[C@]3(O)C(=O)C(C(N)=O)=C(O)[C@@H](N(C)C)C3CC1C2 (stereo partly drawn) [C, [4S-(4alpha,12aalpha)]-4-(Dimethylamino)-1,4,4a,5,5a,6,11,12a-octahydro-3,10,12,12a-tetrahydroxy-1,11-dioxo-9-[[(propylamino)acetyl]amino]-2-naphthacenecarboxamide dihydrochloride] | – | 2 | – | 0.12 | 16 | 0.25 | – | 0.25 | 0.5 | 0.25 | 0.25 | 0.5 | 0.25 | 0.12 | 0.25 | 0.25 | 0.5 | 0.12 | 0.06 | 0.25 | MIC (E. coli #311 (MP); E. coli #311 (MP), read-out: MIC): 0.5 µg/mL; MIC (Enterococcus 12201): 0.25 µg/mL; MIC (S. aureus NEMC 8769; [15]): 0.06 µg/mL; ED50 ([11]; iv, Intraveneous): 1 to 2 mg/kg; ED50 ([11]; po, Oral): > 16 mg/kg; in vivo activity (in words) ([11]; tested intravenously against the minocycline sensitive organism S. aureus Smith): very good in vivo activity; MIC (E. faecalis ATCC 29212; [16]): 0.12 µg/mL; MIC (E. coli ATCC 25922): 0.12 µg/mL; MIC [5]: 4 µg/mL; MIC (S. aureus ROSE (MP); read-out: MIC): 16 µg/mL; MIC (S. aureus UBMS 90-3): 0.06 µg/mL; MIC (S. aureus IVES 1983; S. aureus IVES 1983, read-out: MIC): 4 µg/mL; MIC (E. coli PRP1 Tet A): 1 µg/mL; MIC ([10]; S. hemolyticus AVHAH 88-3, read-out: MIC): 0.5 µg/mL; MIC (S. aureus IVES 2943; [14]): 4 µg/mL; MIC (S. marcescens FPOR 8733; read-out: MIC): 4 µg/mL; MIC (S. aureus ATCC 29213; read-out: MIC): 0.25 µg/mL
CCN(CC)CC(=O)Nc1ccc2c(c1O)C(=O)C1=C(O)[C@]3(O)C(=O)C(C(N)=O)=C(O)[C@@H](N(C)C)C3CC1C2 (stereo partly drawn) [O, [4S-(4alpha,12aalpha)]-9-[[(Diethylamino)acetyl]amino]-4-(dimethylamino)-1,4,4a,5,5a,6,11,12a-octahydro-3,10,12,12a-tetrahydroxy-1,11-dioxo-2-naphthacenecarboxamide dihydrochloride] | 1 | 0.5 | 0.25 | 0.5 | – | 0.5 | 1 | 0.5 | 0.5 | 0.5 | 0.5 | 1 | 0.5 | 0.25 | 1 | 1 | 1 | 0.5 | 0.12 | 1 | MIC (S. aureus NEMC 8769; [15]): 1 µg/mL; MIC (E. faecalis ATCC 29212; [16]): 0.25 µg/mL; MIC [2]: 32 µg/mL; MIC (E. coli ATCC 25922; read-out: MIC): 0.5 µg/mL; MIC [5]: 1 µg/mL; MIC (S. aureus ROSE (MP)): 2 µg/mL; MIC (S. aureus UBMS 90-3; S. aureus UBMS 90-3, read-out: MIC): 0.25 µg/mL; MIC (S. aureus IVES 1983): 0.5 µg/mL; MIC [10]: 2 µg/mL; MIC (S. aureus IVES 2943): 1 µg/mL; MIC (S. marcescens FPOR 8733; read-out: MIC): 8 µg/mL; MIC (S. aureus ATCC 29213): 0.5 µg/mL
